Data as given in patent publication US8501483B2, “Method of assessing cancer status in a breast cancer patient” (University College Dublin, National University of Ireland, …, priority 2008, dated 2013).

Columns and labels:
[1] = system: interactions between SRC-1 and HOX-C11; experiment: Immunoprecipitation of SRC-1 and subsequent immunoblot for HOX-C11 in endocrine resistant LY2 cells; type: cell-based; settings: endocrine resistant breast cancer LY2 cells, 10^−8 M, FIG. 1
Method: FIG. 1: Confirmation of differential interactions between SRC-1 and HOX-C11 in endocrine resistant breast cancer LY2 cells in the presence of tamoxifen (4-OHT) and faslodex (ICI) (10^−8 M) was performed by immunoprecipitation of SRC-1 and subsequent immunoblot for HOX-C11.
(§1) Increased interactions between HOX-C11 and SRC-1 were found in endocrine resistant versus endocrine sensitive breast cancer. Furthermore these interactions were enhanced in the presence of endocrine modulators, tamoxifen and faslodex (FIG. 1). In primary breast cancer tissue HOX-C11 and SRC-1 were co-localised to the nucleus and perinuclear region of the tumour epithelial cells (FIG. 2). A greater interaction occurred in tamoxifen-resistant LY2 cells, compared with the parent MCF-7 sensitive cell line. HOX genes play a central role in ductal formation and lobulo-aleolar development by regulating epithelial proliferation and differentiation in the developing breast and have been implicated in steroid/growth-factor pathway crosstalk. […] S100β has been identified as a possible target gene of the HOX-C11 transcription factor. Several HOX responsive elements have been identified in the promoter of S100β and forced expression of HOX-C11 in neuronal cells induces expression of S100β. […]

[2] = system: HOX-C11; experiment: Immunocytochemistry of HOX-C11 in tamoxifen-resistant cells; type: cell-based
From the text: as §1, with “S100β. This family of calcium binding protein is secreted and has previously been associated with poor outcome and reduced disease-free survival in melanoma. Experimental data provides evidence for a functional interaction between SRC-1 and HOX-C11. Knockdown of SRC-1 using siRNA abrogated the HOX-C11 associated induction of S100β (FIG. 4B).” for “S100β.”

Structure (SMILES)	interactions between HOX-C11 and SRC-1 [1]	HOX-C11 localisation when cells were treated [2]
C[C@]12CC[C@@H]3c4ccc(O)cc4C[C@@H](CCCCCCCCC[S+]([O-])CCCC(F)(F)C(F)(F)F)[C@H]3[C@@H]1CC[C@@H]2O (stereo partly shown) [faslodex]	enhanced	translocate to the nucleus and peri-nuclear region
CC/C(=C(\c1ccccc1)c1ccc(OCCN(C)C)cc1)c1ccccc1 [tamoxifen]	enhanced	translocate to the nucleus and peri-nuclear region
